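These data come from cells grown in 96-well plates and exposed to compound for 48 hours at five concentrations. Abbreviation: GI50, concentration required for 50% inhibition of growth. TGI denotes the concentration required for complete inhibition of growth.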
Tests used:
Test in all cases: NCI tumour cell line growth inhibition, 48 h
HT29 colon = system: HT29 colon
NCI-H460 lung = system: NCI-H460 lung
NCI-H226 lung = system: NCI-H226 lung
EKVX NSCLC = system: EKVX NSCLC
PC-3 prostate = system: PC-3 prostate
UACC-257 melanoma = system: UACC-257 melanoma
NCI-H23 lung = system: NCI-H23 lung
HL-60(TB) leukemia = system: HL-60(TB) leukemia
CCRF-CEM leukemia = system: CCRF-CEM leukemia
HCC-2998 colon = system: HCC-2998 colon

CC(=O)Nc1ccc(Cc2ccc3[nH]c(=O)cc(C)c3c2)cc1
TGI (HT29 colon): > 100 µM
TGI (NCI-H460 lung): > 100 µM
TGI (NCI-H226 lung): > 100 µM
TGI (EKVX NSCLC): > 100 µM
TGI (PC-3 prostate): > 100 µM
TGI (UACC-257 melanoma): > 100 µM
TGI (NCI-H23 lung): > 100 µM
TGI (HL-60(TB) leukemia): > 100 µM
TGI (CCRF-CEM leukemia): > 100 µM

O=C(O)c1c[nH]c2c(ccc3[nH]cc(C(=O)O)c(=O)c32)c1=O
TGI (HT29 colon): > 100 µM
TGI (NCI-H460 lung): > 100 µM
TGI (NCI-H226 lung): > 100 µM
TGI (EKVX NSCLC): > 100 µM
TGI (PC-3 prostate): > 100 µM
TGI (UACC-257 melanoma): > 100 µM
TGI (NCI-H23 lung): > 100 µM
TGI (HL-60(TB) leukemia): > 100 µM

Cn1c2c(c3ccccc31)CCN(CCCN1CCN(c3ccccc3)CC1)C2=O
TGI (HT29 colon): 26.7 µM
TGI (EKVX NSCLC): 77.6 µM
TGI (NCI-H23 lung): 46.8 µM
TGI (HL-60(TB) leukemia): 33.6 µM
TGI (CCRF-CEM leukemia): 65.7 µM

CCOC(=O)CP(=S)(S)c1ccccc1 (stereo not drawn)
TGI (HT29 colon): > 100 µM
TGI (NCI-H460 lung): > 100 µM
TGI (NCI-H226 lung): > 100 µM
TGI (EKVX NSCLC): > 100 µM
TGI (UACC-257 melanoma): > 100 µM
TGI (NCI-H23 lung): > 100 µM
TGI (HL-60(TB) leukemia): > 100 µM
TGI (CCRF-CEM leukemia): > 100 µM

C[C@H]1CCC2C(CN3CCCCC3)C(=O)OC2[C@]2(C)C(=O)CC(N3CCCCC3)C12O (stereo partly drawn)
TGI (HCC-2998 colon): 18.2 µM
TGI (HT29 colon): 16.4 µM
TGI (NCI-H460 lung): 32.6 µM
TGI (NCI-H226 lung): 6.73 µM
TGI (EKVX NSCLC): 16.1 µM
TGI (UACC-257 melanoma): 13.1 µM
TGI (NCI-H23 lung): 25.9 µM
TGI (HL-60(TB) leukemia): 10.6 µM
TGI (CCRF-CEM leukemia): 10.1 µM

COc1cc(/C=C2\CC3C4CCC5=CC(=O)CC[C@]5(C)C4CC[C@]3(C)C2=O)ccc1OCCN1CCCCC1 (stereo partly drawn)
GI50 (HCC-2998 colon): 3.26 µM
TGI (HCC-2998 colon): 12.5 µM
GI50 (HT29 colon): 3.37 µM
TGI (HT29 colon): 64.8 µM
GI50 (NCI-H460 lung): 3.43 µM
TGI (NCI-H460 lung): 14.1 µM
GI50 (NCI-H226 lung): 5.24 µM
TGI (NCI-H226 lung): 21.1 µM
GI50 (EKVX NSCLC): 6.3 µM
TGI (EKVX NSCLC): 21.8 µM
GI50 (PC-3 prostate): 2.33 µM
TGI (PC-3 prostate): 12.8 µM
GI50 (UACC-257 melanoma): 4.8 µM
TGI (UACC-257 melanoma): 18.4 µM
GI50 (NCI-H23 lung): 5.33 µM
TGI (NCI-H23 lung): 25.7 µM

Cc1cc(C)c(C(=O)/C(=C/c2ccccc2)c2ccccc2)c(C)c1
TGI (HT29 colon): > 100 µM
TGI (NCI-H460 lung): > 100 µM
TGI (NCI-H226 lung): > 100 µM
TGI (EKVX NSCLC): > 100 µM
TGI (UACC-257 melanoma): > 100 µM
TGI (NCI-H23 lung): > 100 µM
TGI (HL-60(TB) leukemia): 90.6 µM
TGI (CCRF-CEM leukemia): > 100 µM

Cc1cc(C)c(C2=NO[C@@H]3C(=O)N(c4ccc(Cc5ccc(N6C(=O)[C@H]7C(c8c(C)cc(C)cc8C)=NO[C@H]7C6=O)cc5)cc4)C(=O)[C@H]23)c(C)c1
TGI (HCC-2998 colon): > 100 µM
TGI (HT29 colon): > 100 µM
TGI (NCI-H226 lung): > 100 µM
TGI (EKVX NSCLC): > 100 µM
TGI (UACC-257 melanoma): > 100 µM
TGI (NCI-H23 lung): > 100 µM
TGI (HL-60(TB) leukemia): > 100 µM
TGI (CCRF-CEM leukemia): > 100 µM

O=Cc1cn(S(=O)(=O)c2ccccc2)c2ccccc12
TGI (HCC-2998 colon): > 100 µM
TGI (HT29 colon): > 100 µM
TGI (NCI-H460 lung): > 100 µM
TGI (NCI-H226 lung): > 100 µM
TGI (EKVX NSCLC): > 100 µM
TGI (UACC-257 melanoma): > 100 µM
TGI (NCI-H23 lung): 85 µM
TGI (HL-60(TB) leukemia): 49.2 µM
TGI (CCRF-CEM leukemia): > 100 µM

C1C[S][Ge]2([S]CCS1)[S]CCSCC[S]2
GI50 (HCC-2998 colon): > 100 µM
TGI (HCC-2998 colon): > 100 µM
GI50 (NCI-H226 lung): > 100 µM
TGI (NCI-H226 lung): > 100 µM
GI50 (NCI-H23 lung): > 100 µM
TGI (NCI-H23 lung): > 100 µM
GI50 (HL-60(TB) leukemia): > 100 µM
TGI (HL-60(TB) leukemia): > 100 µM
GI50 (CCRF-CEM leukemia): > 100 µM
TGI (CCRF-CEM leukemia): > 100 µM

Cc1nc(-n2nc(-c3ccccc3)cc2-c2ccccc2)sc1C(/C=C/c1ccc([N+](=O)[O-])cc1)=N/NC(N)=S
TGI (HCC-2998 colon): 74 µM
TGI (HT29 colon): > 100 µM
TGI (NCI-H460 lung): > 100 µM
TGI (NCI-H226 lung): > 100 µM
TGI (EKVX NSCLC): > 100 µM
TGI (UACC-257 melanoma): > 100 µM
TGI (NCI-H23 lung): > 100 µM
TGI (HL-60(TB) leukemia): 25.6 µM
TGI (CCRF-CEM leukemia): 90.2 µM

O=c1[nH]c(-c2ccc([N+](=O)[O-])cc2)nc2ccc(Cl)cc12
TGI (HCC-2998 colon): > 100 µM
TGI (HT29 colon): > 100 µM
TGI (EKVX NSCLC): > 100 µM
TGI (UACC-257 melanoma): > 100 µM
TGI (NCI-H23 lung): > 100 µM

C/C(CC(=O)Nc1ccc([N+](=O)[O-])cc1)=N\Nc1ccc([N+](=O)[O-])cc1[N+](=O)[O-]
TGI (HCC-2998 colon): 65.4 µM
TGI (HT29 colon): > 100 µM
TGI (NCI-H460 lung): > 100 µM
TGI (NCI-H226 lung): > 100 µM
TGI (EKVX NSCLC): > 100 µM
TGI (UACC-257 melanoma): > 100 µM
TGI (NCI-H23 lung): > 100 µM
TGI (HL-60(TB) leukemia): > 100 µM
TGI (CCRF-CEM leukemia): > 100 µM

CN(CC1NCCCC1O)C12CC3CC(CC(C3)C1)C2 (stereo not drawn)
TGI (HCC-2998 colon): > 100 µM
TGI (HT29 colon): > 100 µM
TGI (NCI-H460 lung): > 100 µM
TGI (NCI-H226 lung): > 100 µM
TGI (EKVX NSCLC): > 100 µM
TGI (UACC-257 melanoma): > 100 µM
TGI (NCI-H23 lung): > 100 µM
TGI (HL-60(TB) leukemia): > 100 µM
TGI (CCRF-CEM leukemia): > 100 µM

O=C1CCCCCCCCCCOC(=O)CCCCCCCCCCO1
TGI (HCC-2998 colon): > 100 µM
TGI (HT29 colon): > 100 µM
TGI (NCI-H460 lung): > 100 µM
TGI (NCI-H226 lung): > 100 µM
TGI (EKVX NSCLC): > 100 µM
TGI (UACC-257 melanoma): > 100 µM
TGI (NCI-H23 lung): > 100 µM
TGI (HL-60(TB) leukemia): 44.8 µM
TGI (CCRF-CEM leukemia): > 100 µM

Clc1ccc(Nc2ncnc3c2sc2ncccc23)c(Cl)c1
GI50 (HT29 colon): 0.0462 µM
TGI (HT29 colon): > 100 µM
GI50 (NCI-H460 lung): < 0.01 µM
TGI (NCI-H460 lung): > 100 µM
GI50 (NCI-H226 lung): 0.42 µM
TGI (NCI-H226 lung): > 100 µM
GI50 (EKVX NSCLC): 0.0826 µM
TGI (EKVX NSCLC): > 100 µM
GI50 (PC-3 prostate): 2.72 µM
TGI (PC-3 prostate): > 100 µM
GI50 (UACC-257 melanoma): 0.0557 µM
TGI (UACC-257 melanoma): > 100 µM
GI50 (NCI-H23 lung): < 0.01 µM
TGI (NCI-H23 lung): 1.47 µM
GI50 (HL-60(TB) leukemia): < 0.0137 µM
TGI (HL-60(TB) leukemia): > 100 µM
GI50 (CCRF-CEM leukemia): 0.0218 µM
TGI (CCRF-CEM leukemia): > 100 µM

C/C(CC(=O)Nc1cccc(C)c1C)=N\NC(N)=S
TGI (HCC-2998 colon): > 100 µM
TGI (HT29 colon): > 100 µM
TGI (NCI-H460 lung): > 100 µM
TGI (NCI-H226 lung): > 100 µM
TGI (EKVX NSCLC): > 100 µM
TGI (UACC-257 melanoma): > 100 µM
TGI (NCI-H23 lung): > 100 µM
TGI (HL-60(TB) leukemia): > 100 µM
TGI (CCRF-CEM leukemia): > 100 µM

C=C1CCC2(C(C)=O)COC1(C)O2 (stereo not drawn)
TGI (HT29 colon): > 100 µM
TGI (NCI-H460 lung): > 100 µM
TGI (NCI-H226 lung): > 100 µM
TGI (EKVX NSCLC): > 100 µM
TGI (UACC-257 melanoma): > 100 µM
TGI (NCI-H23 lung): > 10 µM
TGI (HL-60(TB) leukemia): > 100 µM
TGI (CCRF-CEM leukemia): > 100 µM

O=C1c2ccccc2-c2ccccc2C1(Cl)Cl
GI50 (HT29 colon): 2.52 µM
TGI (HT29 colon): 7.57 µM
GI50 (NCI-H460 lung): 1.91 µM
TGI (NCI-H460 lung): 3.97 µM
GI50 (NCI-H226 lung): 1.79 µM
TGI (NCI-H226 lung): 3.49 µM
GI50 (EKVX NSCLC): 1.46 µM
TGI (EKVX NSCLC): 2.88 µM
GI50 (PC-3 prostate): 1.08 µM
TGI (PC-3 prostate): 3.31 µM
GI50 (UACC-257 melanoma): 0.203 µM
TGI (UACC-257 melanoma): 0.476 µM
GI50 (NCI-H23 lung): 1.57 µM
TGI (NCI-H23 lung): 4.25 µM
GI50 (HL-60(TB) leukemia): 2.29 µM
TGI (HL-60(TB) leukemia): 5.93 µM
GI50 (CCRF-CEM leukemia): 1.65 µM
TGI (CCRF-CEM leukemia): 7.03 µM

COc1cc(=O)oc(/C=C/CO)c1C
TGI (HCC-2998 colon): > 100 µM
TGI (HT29 colon): > 100 µM
TGI (NCI-H226 lung): > 100 µM
TGI (EKVX NSCLC): > 100 µM
TGI (UACC-257 melanoma): > 100 µM
TGI (NCI-H23 lung): > 100 µM
TGI (HL-60(TB) leukemia): > 100 µM
TGI (CCRF-CEM leukemia): > 100 µM

O=C(O)C1C2CCC(O2)C1C(=O)NCc1cccnc1 (stereo not drawn)
TGI (HT29 colon): > 100 µM
TGI (NCI-H460 lung): > 100 µM
TGI (EKVX NSCLC): > 100 µM
TGI (PC-3 prostate): > 100 µM
TGI (UACC-257 melanoma): > 100 µM
TGI (NCI-H23 lung): > 100 µM
TGI (CCRF-CEM leukemia): > 100 µM

C=CCn1c(=O)c(C(=O)NC(=O)OCC)cn(C2CCCCC2)c1=O
TGI (HCC-2998 colon): > 100 µM
TGI (HT29 colon): > 100 µM
TGI (NCI-H460 lung): > 100 µM
TGI (NCI-H226 lung): > 100 µM
TGI (EKVX NSCLC): > 100 µM
TGI (UACC-257 melanoma): > 100 µM
TGI (NCI-H23 lung): > 100 µM
TGI (HL-60(TB) leukemia): > 100 µM
TGI (CCRF-CEM leukemia): > 100 µM

— PubChem BioAssay (NCI)
